Reference: US20110086759A1, “CHEMICAL COMPOUNDS” (SYNGENTA CROP PROTECTION, INC., priority 2007, published 2011)

What was measured:
Assay type in all cases: in vivo
Setaria faberi (SETFA) [1] = experiment: Pre-emergence biological efficacy, glasshouse pot test; details: 312 h
Procedure: (§1) Seeds of Alopecurus myosuroides (ALOMY), Setaria faberi (SETFA), Echinochloa crus-galli (ECHCG), Solanum nigrum (SOLNI), Amaranthus retoflexus (AMARE) and Ipomea hederaceae (IPOHE) were sown in standard soil in pots. After cultivation for one day under controlled conditions in a glasshouse (at 24/16° C., day/night; 14 hours light; 65% humidity), the plants were sprayed with an aqueous spray solution derived from the formulation of the technical active ingredient in acetone/water (50:50) solution containing 0.5% Tween 20 (polyoxyethelyene sorbitan monolaurate, CAS RN 9005-64-5) to give a final dose of 1000 or 250 g/ha of test compound.
(§2) The test plants were then grown under controlled conditions in the glasshouse (at 24/16° C., day/night; 14 hours light; 65% humidity) and watered twice daily. After 13 days the test was evaluated (100=total damage to plant; 0=no damage to plant).

[2] = system: Amaranthus retoflexus (AMARE); experiment: as above; details: Amaranthus retroflexus, 312 h; pre-emergence, 1,000 g/ha, evaluated after 13 days (100=total damage; 0=no damage); read-out: Percentage damage AMARE
Procedure: as §1, §2

[3] = system: Alopecurus myosuroides (ALOMY); experiment: as above; details: 312 h
Procedure: as §1, §2

[4] = system: Ipomea hederaceae (IPOHE); experiment: as above; details: Ipomoea hederacea, 312 h
Procedure: as §1, §2

Solanum nigrum (SOLNI) [5] = experiment: as above; details: 312 h, pre-emergence, 1,000 g/ha, evaluated after 13 days (100=total damage; 0=no damage), read-out: Percentage damage SOLNI
Procedure: as §1, §2

[6] = system: Echinochloa crus-galli (ECHCG); experiment: as above; details: 312 h
Procedure: as §1, §2

Setaria faberi (SETFA) [7] = experiment: Post-emergence biological efficacy, glasshouse pot test; details: 312 h
Procedure: as §1, with “8 days” for “one day”
(§3) The test plants were then grown on under controlled conditions in a glasshouse (at 24/16° C., day/night; 14 hours light; 65% humidity) and watered twice daily. After 13 days the test was evaluated (100=total damage to plant; 0=no damage to plant).

[8] = system: Amaranthus retoflexus (AMARE); experiment: as above; details: Amaranthus retroflexus, 312 h
Procedure: as §1, with “8 days” for “one day”
as §3

[9] = system: Alopecurus myosuroides (ALOMY); experiment: as above; details: 312 h
Procedure: as §1, with “8 days” for “one day”
as §3

[10] = system: Ipomea hederaceae (IPOHE); experiment: as above; details: Ipomoea hederacea, 312 h
Procedure: as §1, with “8 days” for “one day”
as §3

Solanum nigrum (SOLNI) [11] = experiment: as above; details: 312 h
Procedure: as §1, with “8 days” for “one day”
as §3

[12] = system: Echinochloa crus-galli (ECHCG); experiment: as above; details: 312 h
Procedure: as §1, with “8 days” for “one day”
as §3

[13] = pre-emergence, 1,000 g/ha, evaluated after 13 days (100=total damage; 0=no damage), read-out: Percentage damage SETFA
[14] = pre-emergence, 1,000 g/ha, evaluated after 13 days (100=total damage; 0=no damage), read-out: Percentage damage ALOMY
[15] = pre-emergence, 1,000 g/ha, evaluated after 13 days (100=total damage; 0=no damage), read-out: Percentage damage IPOHE
[16] = pre-emergence, 1,000 g/ha, evaluated after 13 days (100=total damage; 0=no damage), read-out: Percentage damage ECHCG
[17] = post-emergence, 1,000 g/ha, evaluated after 13 days (100=total damage; 0=no damage), read-out: Percentage damage caused to weed species, SETFA
[18] = post-emergence, 1,000 g/ha, evaluated after 13 days (100=total damage; 0=no damage), read-out: Percentage damage caused to weed species, AMARE
[19] = post-emergence, 1,000 g/ha, evaluated after 13 days (100=total damage; 0=no damage), read-out: Percentage damage caused to weed species, ALOMY
[20] = post-emergence, 1,000 g/ha, evaluated after 13 days (100=total damage; 0=no damage), read-out: Percentage damage caused to weed species, IPOHE
[21] = post-emergence, 1,000 g/ha, evaluated after 13 days (100=total damage; 0=no damage), read-out: Percentage damage caused to weed species, SOLNI
[22] = post-emergence, 1,000 g/ha, evaluated after 13 days (100=total damage; 0=no damage), read-out: Percentage damage caused to weed species, ECHCG

Row | SMILES | pest or weed control at 1000 g/ha (Setaria faberi (SETFA) [1]; [13]) [%] | pest or weed control at 1000 g/ha [2] [%] | pest or weed control at 1000 g/ha [3, 14] [%] | pest or weed control at 1000 g/ha [4, 15] [%] | pest or weed control at 1000 g/ha (Solanum nigrum (SOLNI) [5]) [%] | pest or weed control at 1000 g/ha [6, 16] [%] | pest or weed control at 1000 g/ha (Setaria faberi (SETFA) [7]; [17]) [%] | pest or weed control at 1000 g/ha [8, 18] [%] | pest or weed control at 1000 g/ha [9, 19] [%] | pest or weed control at 1000 g/ha [10, 20] [%] | pest or weed control at 1000 g/ha (Solanum nigrum (SOLNI) [11]; [21]) [%] | pest or weed control at 1000 g/ha [12, 22] [%] | further results
1 | COC(=O)c1nc(C2CC2)nc(N[C@H]2CCCC[C@@H]2O)c1Cl (relative stereo) [4-36 (trans), 5-Chloro-2-cyclopropyl-4-(trans-2-hydroxycyclohexyl-amino)-6-methoxy-carbonylpyrimidine] | 20 | 80 | 10 | 60 | 70 | 20 | 20 | 80 | 20 | 40 | 70 | 10 | –
2 | COC(=O)c1nc(C2CC2)nc(NC2(/C=C/c3ccccc3)CC2)c1Cl [4-19 (E), 5-Chloro-2-cyclopropyl-6-methoxycarbonyl-4-[1-(2-phenyl-ethenyl)-cyclo-propylamino]-pyrimidine] | 20 | 40 | 20 | 80 | 60 | 20 | 70 | 100 | 20 | 100 | 80 | 40 | –
3 | COC(=O)c1nc(C2CC2)nc(NC2(/C=C\c3ccccc3)CC2)c1Cl [4-19 (Z), 5-Chloro-2-cyclopropyl-6-methoxycarbonyl-[(Z)-1-(2-phenylethenyl)-cyclopropylamino]-pyrimidine] | 0 | 90 | 20 | 90 | 40 | 20 | 60 | 100 | 10 | 100 | 90 | 30 | –
4 | COC(=O)c1nc(C2CC2)nc(N[C@@H]2c3ccccc3C[C@@H]2O)c1Cl [4-37 (1R,2S), 5-Chloro-2-cyclopropyl-4-[(1R, 2S)-2-hydroxy-indan-1-ylamino]-6-methoxycarbonyl-pyrimidine] | 80 | 100 | 50 | 100 | 100 | 60 | 70 | 100 | 30 | 100 | 100 | 60 | –
5 | COC(=O)c1nc(C2CC2)nc(N[C@H]2c3ccccc3C[C@H]2O)c1Cl [4-37 (1S,2R), 5-Chloro-2-cyclopropyl-4-[(1S, 2R)-2-hydroxy-indan-1-ylamino]-6-methoxycarbonyl-pyrimidine] | 60 | 100 | 30 | 80 | 90 | 40 | 60 | 100 | 50 | 50 | 100 | 60 | –
6 | COC(=O)c1nc(C2CC2)nc(NCCC2=CCCCC2)c1Cl [Compound 4-215, 5-Chloro-4-[2-(cyclohex-1-enyl)ethylamino]-2-cyclopropyl-6-methoxycarbonyl-pyrimidine] | 20 | 100 | 10 | 90 | 90 | 20 | 50 | – | 20 | 80 | 100 | 30 | –
7 | COC(=O)c1nc(C2CC2)nc(NCC(F)c2cccc(Br)c2)c1Cl (stereo not shown) [Compound 4-235, 4-[2-(3-Bromophenyl)-2-fluoro-ethylamino]-5-chloro-2-cyclopropyl-6-methoxycarbonyl-pyrimidine] | 0 | – | 0 | 0 | – | 0 | 20 | 100 | 0 | 70 | 60 | 30 | –
8 | COC(=O)c1nc(-c2ccc(OC)c(F)c2)nc(NCc2ccco2)c1Cl [Compound 253-48, 5-Chloro-2-(3-fluoro-4-methoxyphenyl)-4-(furan-2-yl-methyl-amino)-6-methoxy-carbonylpyrimidine] | – | – | – | – | – | – | – | – | – | – | – | – | pest or weed control at 1000 g/ha (Setaria faberi (SETFA) [1]; pre-emergence, rate 1,000 g/ha, evaluated after 13 days (100=total damage to plant; 0=no damage), read-out: Percentage damage caused to weed species, SETFA): 0%; pest or weed control at 1000 g/ha ([3]; pre-emergence, rate 1,000 g/ha, evaluated after 13 days (100=total damage to plant; 0=no damage), read-out: Percentage damage caused to weed species, ALOMY): 0%; pest or weed control at 1000 g/ha ([4]; pre-emergence, rate 1,000 g/ha, evaluated after 13 days (100=total damage to plant; 0=no damage), read-out: Percentage damage caused to weed species, IPOHE): 0%; pest or weed control at 1000 g/ha ([6]; pre-emergence, rate 1,000 g/ha, evaluated after 13 days (100=total damage to plant; 0=no damage), read-out: Percentage damage caused to weed species, ECHCG): 0%; pest or weed control at 1000 g/ha (Setaria faberi (SETFA) [7]; Rate 1,000 g/ha, post-emergence spray, evaluated after 13 days (100=total damage to plant; 0=no damage to plant), read-out: Percentage damage caused to weed species, post-emergence, SETFA): 0%; pest or weed control at 1000 g/ha ([8]; Rate 1,000 g/ha, post-emergence spray, evaluated after 13 days (100=total damage to plant; 0=no damage to plant), read-out: Percentage damage caused to weed species, post-emergence, AMARE): 70%; pest or weed control at 1000 g/ha ([9]; Rate 1,000 g/ha, post-emergence spray, evaluated after 13 days (100=total damage to plant; 0=no damage to plant), read-out: Percentage damage caused to weed species, post-emergence, ALOMY): 0%; pest or weed control at 1000 g/ha ([10]; Rate 1,000 g/ha, post-emergence spray, evaluated after 13 days (100=total damage to plant; 0=no damage to plant), read-out: Percentage damage caused to weed species, post-emergence, IPOHE): 20%; pest or weed control at 1000 g/ha (Solanum nigrum (SOLNI) [11]; Rate 1,000 g/ha, post-emergence spray, evaluated after 13 days (100=total damage to plant; 0=no damage to plant), read-out: Percentage damage caused to weed species, post-emergence, SOLNI): 40%; pest or weed control at 1000 g/ha ([12]; Rate 1,000 g/ha, post-emergence spray, evaluated after 13 days (100=total damage to plant; 0=no damage to plant), read-out: Percentage damage caused to weed species, post-emergence, ECHCG): 0%
